Measurements as given in US8097635B2, “Insulin resistance improving agent” (Kyowa Hakko Bio Co., Ltd., priority 2006, dated 2012).

Key:
Assay type in all cases: in vivo
[1] = Body weight of type II diabetes model mice, Test Example 1; conditions: for Body weight: 10 mL/kg orally once a day
Source text: Twenty seven (27) BKS. Cg-+Lepr^db/+Lepr^db/JcI mice (Clea Japan Inc., female, 7 week old), which were type II diabetes model mice expressing the symptoms of hyperinsulinemia due to insulin resistance, were divided into 3 groups each consisting of 9 mice. The groups were designated as group 1, group 2, and group 3.
Mice of the groups 1 to 3 were fed with free access to pellets CE-2 (Clea Japan Inc.; hereinafter referred to as “CE-2”) for feeding mice and rats. To the mice of group 1, 0.5 w/v % methyl cellulose (0.5 w/v % methyl cellulose 400 cP solution, sterilized, produced by Wako Pure Chemical Industries, Ltd. for biochemistry; hereinafter referred to as “0.5% MC”) was administered orally once a day (10 mL/kg). To the mice of group 2, a pyrroloquinoline quinone disodium salt (hereinafter referred to as “PQQ disodium salt,” produced by Mitsubishi Gas Chemical Company, Inc.) suspended in 0.5% MC to a concentration of 0.5 mg/mL was administered orally once a day (10 mL/kg). To the mice of group 3, a PQQ disodium salt suspended in 0.5% MC to a concentration of 2 mg/mL was administered orally once a day (10 mL/kg).

[2] = system: BKS. Cg-+Lepr^db/+Lepr^db/JcI mice (type II diabetes model mice); assay: Nonfasting blood serum glucose level, Test Example 1; conditions: for Blood glucose level: non-fasting, 10 mL/kg orally once a day
Source text: (§1) Twenty seven (27) BKS. Cg-+Lepr^db/+Lepr^db/JcI mice (Clea Japan Inc., female, 7 week old), which were type II diabetes model mice expressing the symptoms of hyperinsulinemia due to insulin resistance, were divided into 3 groups each consisting of 9 mice. The groups were designated as group 1, group 2, and group 3. Mice of the groups 1 to 3 were fed with free access to pellets CE-2 (Clea Japan Inc.; hereinafter referred to as “CE-2”) for feeding mice and rats. To the mice of group 1, 0.5 w/v % methyl cellulose (0.5 w/v % methyl cellulose 400 cP solution, sterilized, produced by Wako Pure Chemical Industries, Ltd. for biochemistry; hereinafter referred to as “0.5% MC”) was administered orally once a day (10 mL/kg). To the mice of group 2, a pyrroloquinoline quinone disodium salt (hereinafter referred to as “PQQ disodium salt,” produced by Mitsubishi Gas Chemical Company, Inc.) suspended in 0.5% MC to a concentration of 0.5 mg/mL was administered orally once a day (10 mL/kg). To the mice of group 3, a PQQ disodium salt suspended in 0.5% MC to a concentration of 2 mg/mL was administered orally once a day (10 mL/kg). Blood was collected from the orbital veins on day 14 and day 28 after the initiation of the test, and thus serum was obtained. Nonfasting blood serum glucose levels and nonfasting serum insulin concentrations were separately measured using a glucose C-II Test Wako (produced by Wako Pure Chemical Industries, Ltd.) and a Mouse Insulin ELISA Kit (S-type) (produced by Shibayagi Co., Ltd.), respectively. After 18 hours of fasting from day 28 to day 29 after the initiation of the test, a 40% (w/v) glucose aqueous solution was administered orally to each mouse at 2 g/kg B.W., so as to load the mice with glucose (to test the glucose tolerance). Blood was collected from tail veins at the time of administration of a glucose aqueous solution (0 minute) and then at a certain time point after administration (120 minutes). Blood glucose levels were measured using a Medisafe Reader GR-101 (produced by Terumo Corporation). […] Blood serum glucose levels and serum insulin concentrations were separately measured using a glucose C-II Test Wako and a Mouse Insulin ELISA Kit (S-type), respectively. The results were expressed as average levels±standard deviation (n=9). Statistical significance levels (p-values) were found by a t-test (group 1 with respect to group 2; and group 1 with respect to group 3).

[3] = system: BKS. Cg-+Lepr^db/+Lepr^db/JcI mice (type II diabetes model mice); assay: Nonfasting serum insulin concentration, Test Example 1; conditions: for Serum insulin concentration: non-fasting, 10 mL/kg orally once a day
Source text: as §1

[4] = system: BKS. Cg-+Lepr^db/+Lepr^db/JcI mice (type II diabetes model mice); assay: Glucose tolerance test, Test Example 1; conditions: for Blood glucose level: glucose tolerance test day 29, glucose 2 g/kg orally after 18 h fasting, 10 mL/kg orally once a day
Source text: as §1

[5] = system: BKS. Cg-+Lepr^db/+Lepr^db/JcI mice (type II diabetes model mice); assay: Fasting blood serum glucose level on day 32, Test Example 1; conditions: for Blood glucose level: fasting, day 32 after initiation of test, 10 mL/kg orally once a day; for Fasting blood glucose levels compared with group 1 (0.5% MC): day 32
Source text: as §1

[6] = system: BKS. Cg-+Lepr^db/+Lepr^db/JcI mice (type II diabetes model mice); assay: Fasting serum insulin concentration on day 32, Test Example 1; conditions: for Insulin concentration: day 32 after initiation of test, 10 mL/kg orally once a day
Source text: Twenty seven (27) BKS. Cg-+Lepr^db/+Lepr^db/JcI mice (Clea Japan Inc., female, 7 week old), which were type II diabetes model mice expressing the symptoms of hyperinsulinemia due to insulin resistance, were divided into 3 groups each consisting of 9 mice. The groups were designated as group 1, group 2, and group 3. Mice of the groups 1 to 3 were fed with free access to pellets CE-2 (Clea Japan Inc.; hereinafter referred to as “CE-2”) for feeding mice and rats. To the mice of group 1, 0.5 w/v % methyl cellulose (0.5 w/v % methyl cellulose 400 cP solution, sterilized, produced by Wako Pure Chemical Industries, Ltd. for biochemistry; hereinafter referred to as “0.5% MC”) was administered orally once a day (10 mL/kg). To the mice of group 2, a pyrroloquinoline quinone disodium salt (hereinafter referred to as “PQQ disodium salt,” produced by Mitsubishi Gas Chemical Company, Inc.) suspended in 0.5% MC to a concentration of 0.5 mg/mL was administered orally once a day (10 mL/kg). To the mice of group 3, a PQQ disodium salt suspended in 0.5% MC to a concentration of 2 mg/mL was administered orally once a day (10 mL/kg). Blood was collected from the orbital veins on day 14 and day 28 after the initiation of the test, and thus serum was obtained. Nonfasting blood serum glucose levels and nonfasting serum insulin concentrations were separately measured using a glucose C-II Test Wako (produced by Wako Pure Chemical Industries, Ltd.) and a Mouse Insulin ELISA Kit (S-type) (produced by Shibayagi Co., Ltd.), respectively. […] Blood glucose levels were measured using a Medisafe Reader GR-101 (produced by Terumo Corporation). […] Blood serum glucose levels and serum insulin concentrations were separately measured using a glucose C-II Test Wako and a Mouse Insulin ELISA Kit (S-type), respectively. The results were expressed as average levels±standard deviation (n=9). […]

[7] = system: type II diabetes model KK-AY/Ta JcI mice; assay: Glucose tolerance test, Test Example 2; conditions: for Blood glucose level: glucose tolerance test day 15, glucose 1 g/kg orally after 18 h fasting, 10 mL/kg orally once a day; for Blood glucose levels in glucose tolerance test compared with group 1 (0.5% MC): 30, 60 and 120 minutes after glucose
Experimental: Eighteen type II diabetes model KK-AY/Ta JcI mice (Clea Japan Inc., male, 6 week old) were divided into 3 groups (6 mice in group 1, 7 mice in group 2, and 5 mice in group 3). The groups were designated as group 1, group 2, and group 3, respectively. Mice of the groups 1 to 3 were fed with free access to pellets CE-2 for feeding mice and rats. To the mice of group 1, 0.5% MC was administered orally once a day (10 mL/kg). To the mice of group 2, a PQQ disodium salt suspended in 0.5% MC to a concentration of 0.5 mg/mL was administered orally once a day (10 mL/kg). To the mice of group 3, a PQQ disodium salt suspended in 0.5% MC to a concentration of 2 mg/mL was administered orally once a day (10 mL/kg). After 18 hours of fasting from day 14 to day 15 after the initiation of the test, a 10% (w/v) glucose aqueous solution was administered orally to each mouse at 1 g/kg B.W., so as to load the mice with glucose to test the glucose tolerance. Blood was collected from tail veins at 0 minutes, 30 minutes, 60 minutes, and 120 minutes after administration of the glucose aqueous solution. Blood glucose levels were measured using a Medisafe Reader GR-101 (produced by Terumo Corporation). […] Blood glucose levels were expressed as average levels±standard deviation (n=5-7) and statistical significance levels (p-values) were found by a t-test (group 1 with respect to group 2; and group 1 with respect to group 3).

[8] = system: BKS. Cg-+Lepr^db/+Lepr^db/JcI mice (type II diabetes model mice); assay: Test Example 1 overall conclusion (insulin resistance, type II diabetes, body weight); conditions: Test Example 1, oral once a day for about 32 days
Source text: Twenty seven (27) BKS. Cg-+Lepr^db/+Lepr^db/JcI mice (Clea Japan Inc., female, 7 week old), which were type II diabetes model mice expressing the symptoms of hyperinsulinemia due to insulin resistance, were divided into 3 groups each consisting of 9 mice. The groups were designated as group 1, group 2, and group 3. Mice of the groups 1 to 3 were fed with free access to pellets CE-2 (Clea Japan Inc.; hereinafter referred to as “CE-2”) for feeding mice and rats. To the mice of group 1, 0.5 w/v % methyl cellulose (0.5 w/v % methyl cellulose 400 cP solution, sterilized, produced by Wako Pure Chemical Industries, Ltd. for biochemistry; hereinafter referred to as “0.5% MC”) was administered orally once a day (10 mL/kg). […] Nonfasting blood serum glucose levels and nonfasting serum insulin concentrations were separately measured using a glucose C-II Test Wako (produced by Wako Pure Chemical Industries, Ltd.) and a Mouse Insulin ELISA Kit (S-type) (produced by Shibayagi Co., Ltd.), respectively. […] Blood glucose levels were measured using a Medisafe Reader GR-101 (produced by Terumo Corporation). […] Blood serum glucose levels and serum insulin concentrations were separately measured using a glucose C-II Test Wako and a Mouse Insulin ELISA Kit (S-type), respectively. The results were expressed as average levels±standard deviation (n=9). […]

[9] = group 2: 0.5 mg/mL, day 14 after initiation of test
[10] = group 2: 0.5 mg/mL, day 28 after initiation of test
[11] = group 3: 2 mg/mL, day 14 after initiation of test
[12] = group 3: 2 mg/mL, day 28 after initiation of test
[13] = group 2 (0.5 mg/mL, 10 mL/kg orally once a day)
[14] = group 3 (2 mg/mL, 10 mL/kg orally once a day)

With `O=C(O)c1cc(C(=O)O)c2c(n1)C(=O)C(=O)c1cc(C(=O)O)[nH]c1-2.[Na].[Na]` [PQQ disodium salt, pyrroloquinoline quinone disodium salt] the Body weight ([1]; group 2: 0.5 mg/mL in 0.5% MC, day 0 (test initiated)) was 29.90 ± 0.37 g, the Body weight ([1]; group 2: 0.5 mg/mL in 0.5% MC, day 31) was 37.18 ± 0.65 g and the Body weight ([1]; group 3: 2 mg/mL in 0.5% MC, day 0 (test initiated)) was 29.93 ± 0.51 g. The Body weight ([1]; group 3: 2 mg/mL in 0.5% MC, day 31) was 39.01 ± 1.07 g, the “Body weights compared with group 1 (0.5% MC)” value ([1]; groups 2 and 3 (0.5 and 2 mg/mL, 10 mL/kg orally once a day), after completion of the test) was “almost the same as those of group 1” and the “Non-fasting blood glucose levels compared with group 1 (0.5% MC)” value ([2]; groups 2 and 3 (0.5 and 2 mg/mL, 10 mL/kg orally once a day), day 14 and day 28) was “lower than those of group 1”. For the same molecule, the Blood glucose level [2, 9] was 427.7 ± 11.4 mg/dL, the Blood glucose level [2, 10] was 531.5 ± 12.3 mg/dL and the Blood glucose level [2, 11] was 405.7 ± 24.1 mg/dL. The Blood glucose level [2, 12] was 546.1 ± 26.0 mg/dL, the “Serum insulin concentrations compared with group 1 (0.5% MC)” value ([3]; groups 2 and 3 (0.5 and 2 mg/mL, 10 mL/kg orally once a day), day 14 and 28) was “lower than those of group 1” and the Serum insulin concentration [3, 9] was 4.02 ± 0.75 ng/mL. For the same molecule, the Serum insulin concentration [3, 10] was 3.02 ± 0.47 ng/mL, the Serum insulin concentration [3, 11] was 6.23 ± 1.69 ng/mL and the Serum insulin concentration [3, 12] was 4.82 ± 1.81 ng/mL. The Blood glucose level ([4]; group 2: 0.5 mg/mL, 0 minute) was 281.3 ± 16.3 mg/dL, the Blood glucose level ([4]; group 2: 0.5 mg/mL, 120 minutes) was 522.0 ± 22.9 mg/dL and the Blood glucose level ([4]; group 3: 2 mg/mL, 0 minute) was 303.4 ± 25.9 mg/dL. The Blood glucose level ([4]; group 3: 2 mg/mL, 120 minutes) was 489.3 ± 47.5 mg/dL, the “Blood glucose levels in glucose tolerance test compared with group 1 (0.5% MC)” value ([4]; groups 2 and 3 (0.5 and 2 mg/mL, 10 mL/kg orally once a day), 120 minutes after glucose) was “lower than those of group 1” and the Blood glucose level ([5]; group 2: 0.5 mg/mL) was 617.7 ± 39.1 mg/dL. For the same molecule, the Blood glucose level ([5]; group 3: 2 mg/mL, *p < 0.05 with respect to group 1) was 575.6 ± 33.3* mg/dl, the “Fasting blood glucose levels compared with group 1 (0.5% MC)” value [5, 13] was “lower than those of group 1” and the “Fasting blood glucose levels compared with group 1 (0.5% MC)” value [5, 14] was “significantly lower than those of group 1”. The Insulin concentration ([6]; group 2: 0.5 mg/mL) was 4.88 ± 0.75 ng/mL, the Insulin concentration ([6]; group 3: 2 mg/mL) was 4.4 ± 0.66 ng/mL and the “Serum insulin concentrations compared with group 1 (0.5% MC)” value ([6]; groups 2 and 3 (0.5 and 2 mg/mL, 10 mL/kg orally once a day), day 32) was “lower than those of group 1”. The “Overall effect on type II diabetes” value ([7]; Test Example 2, model mice with a gene mutation differing from test example 1) was “exerts a therapeutic effect on type II diabetes”, the Blood glucose level ([7]; group 2: 0.5 mg/mL, 0 minutes) was 116.7 ± 10.1 mg/dL and the Blood glucose level ([7]; group 2: 0.5 mg/mL, 30 minutes, ***p < 0.001 with respect to group 1) was 274.9 ± 8.4*** mg/dl. For the same molecule, the Blood glucose level ([7]; group 2: 0.5 mg/mL, 60 minutes, *p < 0.05 with respect to group 1) was 264.6 ± 7.6* mg/dl, the Blood glucose level ([7]; group 2: 0.5 mg/mL, 120 minutes, **p < 0.01 with respect to group 1) was 184.3 ± 7.8** mg/dl and the Blood glucose level ([7]; group 3: 2 mg/mL, 0 minutes) was 117.0 ± 12.2 mg/dL. The Blood glucose level ([7]; group 3: 2 mg/mL, 30 minutes) was 300.0 ± 24.1 mg/dL, the Blood glucose level ([7]; group 3: 2 mg/mL, 60 minutes) was 261.6 ± 25.6 mg/dL and the Blood glucose level ([7]; group 3: 2 mg/mL, 120 minutes) was 187.4 ± 20.3 mg/dL. For the same molecule, the “Blood glucose levels in glucose tolerance test compared with group 1 (0.5% MC)” value [7, 13] was “significantly lower than those of group 1”, the “Blood glucose levels in glucose tolerance test compared with group 1 (0.5% MC)” value [7, 14] was “lower than those of group 1” and the “Overall effect on insulin resistance, type II diabetes and body weight” value [8] was “exerts an effect of improving insulin resistance and a therapeutic effect on type II diabetes without body weight gain”.
